{"source": "patent US10183047B2", "about": "“Chromium-containing compositions in combination with Phyllanthus emblica and shilajit having synergistic effects for improving endothelial function and cardiovascular health” (Natreon, Inc., priority 2014, dated 2019)", "format_in_all_cases": "in vivo, human", "key": {"[1]": {"tested_on": "high sensitivity C-reactive protein (hsCRP)", "assay": "hsCRP by ELISA, type 2 diabetics", "method": "(§1) The present clinical study is a prospective, randomized, double blind, placebo-controlled study. Patients of either sex, aged 30-65 years, fasting plasma glucose of 110-126 mg/dl, a glycosylated hemoglobin (HbA1c) between 6.5% and 8% and taking stable dose of anti-diabetic treatment (metformin 1500-2000 mg/day) for the past 8 weeks prior to the screening visit; and having endothelial dysfunction defined as ≤6% change in reflection index (RI) on post salbutamol challenge test were included in the study. Patients with severe uncontrolled hyperglyceamia, uncontrolled hypertension, cardiac arrhythmia, impaired hepatic or renal function, history of malignancy or stroke, smoking, chronic alcoholism, any other serious disease requiring active treatment and treatment with any other herbal supplements, were excluded from the study.\n(§2) After screening, all the eligible subjects were randomized to receive either one of the three treatments orally for duration of 12 weeks—Group1—one capsule of Crominex®3+, 200 mcg once daily, Group 2—one capsule Crominex®3+, 400 mcg once daily; Group 3—one capsule of placebo once daily.\n(§3) Subjects were required for follow up at 4, 8 and 12 weeks of therapy. At each visit they were evaluated for efficacy and safety. Pharmacodynamic evaluation for endothelial function was conducted at every visit. Blood samples were collected for evaluation of biomarkers before and at the end of treatment. Safety lab investigations for hematological, hepatic and renal biochemical parameters were conducted before and at the end of the study and also as and when required (in case of any adverse drug reaction (ADR). Subjects were enquired for the presence of ADR and the same was recorded in the case report form. Compliance to therapy was assessed by pill count method.\n(§4) Nitric oxide, MDA, Glutathione and levels were estimated spectrophotometrically as follows. Malondialdehyde (MDA) levels were determined as described in Vidyasagar, et al., “Oxidative stress and antioxidant status in acute organophosphorous insecticide poisoning,” Indian J. Pharmacol. (April 2004) 36(2): 76-79. Glutathione levels were determined as described in G. L. Ellman, Arch. Biochem. Biophys. (1959) 82: 70-77 (original determination). Nitric oxide levels were estimated spectrophotometrically as described in Miranda, et al., “A Rapid, Simple Spectrophotometric Method for Simultaneous Detection of Nitrate and Nitrite,” NITRIC OXIDE: Biology and Chemistry (2001) Vol. 5, No. 1, pp. 62-71. hsCRP (high sensitivity C-reactive protein) was determined by ELISA method.\n(§5) When the results with Crominex® 3+ in the above two examples were highly significant, especially with the 400 mcg once daily dose in type 2 diabetics, two more clinical studies (EXAMPLES 3 & 4) were conducted at the same institute, following the same methodology as described earlier, on the individual components of Crominex® 3+, i.e., chromium chloride and Phyllanthus emblica+Shilajit, and other chromium supplements available in the market, i.e., chromium picolinate, chromium polynicotinate and chromium dinicocysteinate, in type 2 diabetics as well as in subjects with metabolic syndrome symptoms."}, "[2]": {"assay": "Blood pressure, type 2 diabetics", "details": "type 2 diabetics (Example 3), chromium products 400 mcg", "method": "as §5"}, "[3]": {"assay": "Blood pressure, metabolic syndrome subjects", "details": "metabolic syndrome subjects (Example 4), chromium products 400 mcg", "from_the_text": "(§6) Patients included in the study, were of either gender, aged 30-68 years, having endothelial dysfunction defined as ≤6% change in reflection index (RI) on post salbutamol challenge test and central obesity as defined by The International Diabetes Federation guidelines, dated 2006, and any two of the following conditions:\n(§7) After screening, all the eligible subjects were randomized to receive either one of the three treatments orally for duration of 12 weeks: group 1—one capsule of Crominex®3+ 200 mcg once daily; group 2—one capsule 400 mcg once daily; group 3—one capsule of Placebo once daily.\n(§8) Subjects were reviewed for follow up at 4 weeks, 8 and 12 weeks of therapy. At each visit they were evaluated for efficacy and safety. Pharmacodynamic evaluation for endothelial function was conducted at baseline and end of treatment. Blood samples were collected for evaluation of biomarkers before and at end of treatment. Safety lab investigations for hematological, hepatic and renal biochemical parameters were conducted before and at the end of the study and also as and when required (in case of any adverse drug reaction (ADR)). Subjects were enquired for the presence of ADR and the same was recorded in the case report form. Compliance to therapy was assessed by pill count method.\nas §5"}, "nitric oxide (NO) [4]": {"tested_on": "nitric oxide (NO)", "assay": "Nitric oxide level, spectrophotometric, type 2 diabetics", "method": "as §1, §2, §3, §4, §5"}, "lipid profile [5]": {"tested_on": "lipid profile", "assay": "Lipid profile (TC, HDL-C, LDL-C, TG, VLDL-C), type 2 diabetics", "method": "as §1, §2, §3\n(§9) All the subjects had undergone complete physical examination, safety lab evaluations at baseline and at the end of the treatment. Samples were collected after an overnight fast of 12 hrs after the last dose of medication for determination of hemoglobin, glycosylated hemoglobin (HbA1c), blood urea, serum creatinine, liver function, lipid profile (Total cholesterol, High density lipoprotein cholesterol (HDL-C), low density lipoprotein cholesterol (LDL-C) using appropriate standard techniques.\nas §5"}, "nitric oxide (NO) [6]": {"tested_on": "nitric oxide (NO)", "assay": "Nitric oxide level, metabolic syndrome subjects", "method": "as §4, §6, §7, §8\n(§10) Assessment of endothelial function, biomarkers, safety parameters and primary and secondary efficacy parameters and data analysis were performed as described under the study with type 2 diabetic subjects in Example 1.\nas §5"}, "lipid profile [7]": {"tested_on": "lipid profile", "assay": "Lipid profile (TC, HDL-C, LDL-C, TG), metabolic syndrome subjects", "from_the_text": "as §9\nPatients included in the study, were of either gender, aged 30-68 years, having endothelial dysfunction defined as ≤6% change in reflection index (RI) on post salbutamol challenge test and central obesity as defined by The International Diabetes Federation guidelines, dated 2006, and any two of the following conditions: […]\nas §8, §10, §5"}, "[8]": {"details": "type 2 diabetics (Example 3), chromium products 400 mcg, 12 week treatment"}, "[9]": {"details": "type 2 diabetics (Example 3), chromium products 400 mcg, post-treatment, 12 weeks"}, "[10]": {"details": "type 2 diabetics (Example 3), chromium products 400 mcg, pre-treatment"}, "[11]": {"details": "type 2 diabetics (Example 3), chromium products 400 mcg, 12 weeks of treatment"}, "[12]": {"details": "metabolic syndrome subjects (Example 4), chromium products 400 mcg, after 12 weeks of treatment"}, "[13]": {"details": "metabolic syndrome subjects (Example 4), chromium products 400 mcg, pre-treatment"}}}
{"substance": "chromium polynicotinate", "values": [{"measurement": "hsCRP", "setting": "[1]; DM, 400 mcg", "result": "−11.45", "unit": "%"}, {"measurement": "Mean percentage change in hsCRP", "setting": "[1]; [8]", "result": "−11.45 ± 12.28 #NS %"}, {"measurement": "hsCRP Post Tt", "setting": "[1]; [9]", "result": "2.43 ± 0.49", "unit": "mg/L"}, {"measurement": "hsCRP Pre Tt", "setting": "[1]; [10]", "result": "2.75 ± 0.47", "unit": "mg/L"}, {"measurement": "Diastolic blood pressure Post Tt", "setting": "[2]; post-treatment, 12 weeks", "result": "79.7 ± 2.85", "unit": "NS mmHg"}, {"measurement": "Systolic blood pressure Post Tt", "setting": "[2]; post-treatment, 12 weeks", "result": "124.1 ± 4.88", "unit": "NS mmHg"}, {"measurement": "Diastolic blood pressure Pre Tt", "setting": "[2]; pre-treatment", "result": "81.2 ± 3.07", "unit": "mmHg"}, {"measurement": "Systolic blood pressure Pre Tt", "setting": "[2]; pre-treatment", "result": "125.9 ± 5.17", "unit": "mmHg"}, {"measurement": "Diastolic blood pressure Post Tt", "setting": "[3]; after 12 weeks of treatment", "result": "79.7 ± 2.85", "unit": "NS mmHg"}, {"measurement": "Systolic blood pressure Post Tt", "setting": "[3]; after 12 weeks of treatment", "result": "124.1 ± 4.88", "unit": "NS mmHg"}, {"measurement": "Diastolic blood pressure Pre Tt", "setting": "[3]; pre-treatment", "result": "81.2 ± 3.07", "unit": "mmHg"}, {"measurement": "Systolic blood pressure Pre Tt", "setting": "[3]; pre-treatment", "result": "125.9 ± 5.17", "unit": "mmHg"}, {"measurement": "NO", "setting": "nitric oxide (NO) [4]; DM, 400 mcg", "result": 5.33, "unit": "%"}, {"measurement": "Mean percentage change in NO", "setting": "nitric oxide (NO) [4]; [8]", "result": "5.33 ± 2.25 #@NS %"}, {"measurement": "NO Post Tt", "setting": "nitric oxide (NO) [4]; [9]", "result": "31.86 ± 2.55", "unit": "μM/L"}, {"measurement": "NO Pre Tt", "setting": "nitric oxide (NO) [4]; [10]", "result": "30.26 ± 2.48", "unit": "μM/L"}, {"measurement": "HDL", "setting": "lipid profile [5]; DM, 400 mcg", "result": "−1.23", "unit": "%"}, {"measurement": "LDL", "setting": "lipid profile [5]; DM, 400 mcg", "result": "−0.38", "unit": "%"}, {"measurement": "TC", "setting": "lipid profile [5]; DM, 400 mcg", "result": "−0.68", "unit": "%"}, {"measurement": "TG", "setting": "lipid profile [5]; DM, 400 mcg", "result": "−0.68", "unit": "%"}, {"measurement": "Mean percentage change in HDL-C", "setting": "lipid profile [5]; [11]", "result": "−1.23 ± 3.71 @NS %"}, {"measurement": "Mean percentage change in LDL-C", "setting": "lipid profile [5]; [11]", "result": "−0.38 ± 2.10 @NS %"}, {"measurement": "Mean percentage change in Total Cholesterol", "setting": "lipid profile [5]; [11]", "result": "−0.68 ± 1.21$NS %"}, {"measurement": "Mean percentage change in Triglycerides", "setting": "lipid profile [5]; [11]", "result": "−0.68 ± 0.83", "unit": "NS %"}, {"measurement": "HDL-C Post Tt", "setting": "lipid profile [5]; [9]", "result": "38.65 ± 1.42", "unit": "NS mg/dl"}, {"measurement": "LDL-C Post Tt", "setting": "lipid profile [5]; [9]", "result": "123.32 ± 8.70", "unit": "NS mg/dl"}, {"measurement": "Total Cholesterol Post Tt", "setting": "lipid profile [5]; [9]", "result": "198.00 ± 8.64 $^ mg/dl"}, {"measurement": "Triglycerides Post Tt", "setting": "lipid profile [5]; [9]", "result": "180.15 ± 3.84 @ mg/dl"}, {"measurement": "HDL-C Pre Tt", "setting": "lipid profile [5]; [10]", "result": "39.15 ± 1.23", "unit": "mg/dL"}, {"measurement": "LDL-C Pre Tt", "setting": "lipid profile [5]; [10]", "result": "123.97 ± 9.73", "unit": "mg/dL"}, {"measurement": "Total Cholesterol Pre Tt", "setting": "lipid profile [5]; [10]", "result": "199.40 ± 9.25", "unit": "mg/dL"}, {"measurement": "Triglycerides Pre Tt", "setting": "lipid profile [5]; [10]", "result": "181.40 ± 4.47", "unit": "mg/dL"}, {"measurement": "NO", "setting": "nitric oxide (NO) [6]; MS, 400 mcg", "result": 5.35, "unit": "%"}, {"measurement": "NO Post Tt", "setting": "nitric oxide (NO) [6]; [12]", "result": "32.93 ± 4.66", "unit": "μM/L"}, {"measurement": "Mean percentage change in NO", "setting": "nitric oxide (NO) [6]; metabolic syndrome subjects (Example 4), chromium products 400 mcg, after 12 weeks treatment", "result": "5.35 ± 0.96", "unit": "%"}, {"measurement": "NO Pre Tt", "setting": "nitric oxide (NO) [6]; [13]", "result": "31.26 ± 4.46", "unit": "μM/L"}, {"measurement": "HDL", "setting": "lipid profile [7]; MS, 400 mcg", "result": "−1.55", "unit": "%"}, {"measurement": "LDL", "setting": "lipid profile [7]; MS, 400 mcg", "result": 1.86, "unit": "%"}, {"measurement": "TC", "setting": "lipid profile [7]; MS, 400 mcg", "result": 0.95, "unit": "%"}, {"measurement": "TG", "setting": "lipid profile [7]; MS, 400 mcg", "result": 0.83, "unit": "%"}, {"measurement": "LDL-C, mean percentage change", "setting": "lipid profile [7]; mean percentage change after 12 weeks of treatment, 400 mcg, Example 4", "result": 1.86, "unit": "%"}, {"measurement": "HDL-C Post Tt", "setting": "lipid profile [7]; [12]", "result": "36.20 ± 5.15", "unit": "NS mg/dl"}, {"measurement": "LDL-C Post Tt", "setting": "lipid profile [7]; [12]", "result": "111.95 ± 12.95", "unit": "mg/dL"}, {"measurement": "Mean percentage change in HDL-C", "setting": "lipid profile [7]; [12]", "result": "−1.55 ± 4.17", "unit": "%"}, {"measurement": "Mean percentage change in Total Cholesterol", "setting": "lipid profile [7]; [12]", "result": "0.95 ± 1.33", "unit": "%"}, {"measurement": "Mean percentage change in Triglycerides", "setting": "lipid profile [7]; [12]", "result": "0.83 ± 1.22", "unit": "%"}, {"measurement": "Total Cholesterol Post Tt", "setting": "lipid profile [7]; [12]", "result": "182.75 ± 14.03", "unit": "mg/dL"}, {"measurement": "Triglycerides Post Tt", "setting": "lipid profile [7]; [12]", "result": "173.00 ± 9.33", "unit": "mg/dL"}, {"measurement": "HDL-C Pre Tt", "setting": "lipid profile [7]; [13]", "result": "36.85 ± 5.48", "unit": "mg/dL"}, {"measurement": "LDL-C Pre Tt", "setting": "lipid profile [7]; [13]", "result": "109.88 ± 12.76", "unit": "mg/dL"}, {"measurement": "Total Cholesterol Pre Tt", "setting": "lipid profile [7]; [13]", "result": "181.05 ± 13.98", "unit": "mg/dL"}, {"measurement": "Triglycerides Pre Tt", "setting": "lipid profile [7]; [13]", "result": "171.60 ± 9.43", "unit": "mg/dL"}]}
